The source of these data is PubChem BioAssay AID1918998 (Molecular Pharmacology Branch, DTP, NCI, 2023).

Several values for one entry are separate records, joined by “and”; a condition that tells them apart may be missing. Identical values can stand only once.

In the assay the test system is 521955-158-R2-J5-PDC complex spheroid growth. In words: Anticancer human tumor 521955-158-R2-J5-PDC patient-derived pancreatic carcinoma cell line growth inhibition [AhR]. The note with it: for viability, T/C: stronger effect = lower value. The procedure, abridged:
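Agents were dosed in half-log steps down from roughly clinical Cmax, or from 10 microM where Cmax was unknown, alone and with AhR antagonists. Read-out: percent test/control growth of tumor spheroids containing HUVEC and MSC stromal cells.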

The mark [1] stands for this setting: curve of first compound, second compound 0.1 µM.
Setting [2] is: curve of first compound, second compound 0.316 µM.
Setting [3] is: curve of first compound, second compound 1 µM.
Setting [4] is: curve of first compound, second compound 3.16 µM.
Where [5] appears, read: curve of first compound, second compound 10 µM.
Setting [6] is: second compound 0.1 µM, first compound 0.0316 µM.
Where [7] appears, read: second compound 0.1 µM, first compound 0.1 µM.
Where [8] appears, read: second compound 0.1 µM, first compound 0.316 µM.
Where [9] appears, read: second compound 0.1 µM, first compound 1 µM.
The mark [10] stands for this setting: second compound 0.1 µM, first compound 3.16 µM.
[11] abbreviates: second compound 0.1 µM, first compound 10 µM.
Setting [12] is: second compound 0.316 µM, first compound 0.0316 µM.
Where [13] appears, read: second compound 0.316 µM, first compound 0.1 µM.
The mark [14] stands for this setting: second compound 0.316 µM, first compound 0.316 µM.
The mark [15] stands for this setting: second compound 0.316 µM, first compound 1 µM.
[16] abbreviates: second compound 0.316 µM, first compound 3.16 µM.
Setting [17] is: second compound 0.316 µM, first compound 10 µM.
[18] abbreviates: second compound 1 µM, first compound 0.0316 µM.
Where [19] appears, read: second compound 1 µM, first compound 0.1 µM.
Setting [20] is: second compound 1 µM, first compound 0.316 µM.
Where [21] appears, read: second compound 1 µM, first compound 1 µM.
Setting [22] is: second compound 1 µM, first compound 3.16 µM.
Where [23] appears, read: second compound 1 µM, first compound 10 µM.
The mark [24] stands for this setting: second compound 3.16 µM, first compound 0.0316 µM.
Where [25] appears, read: second compound 3.16 µM, first compound 0.1 µM.
The mark [26] stands for this setting: second compound 3.16 µM, first compound 0.316 µM.
[27] abbreviates: second compound 3.16 µM, first compound 1 µM.
Where [28] appears, read: second compound 3.16 µM, first compound 3.16 µM.
Setting [29] is: second compound 3.16 µM, first compound 10 µM.
The mark [30] stands for this setting: second compound 10 µM, first compound 0.0316 µM.
Setting [31] is: second compound 10 µM, first compound 0.1 µM.
Setting [32] is: second compound 10 µM, first compound 0.316 µM.
The mark [33] stands for this setting: second compound 10 µM, first compound 1 µM.
Setting [34] is: second compound 10 µM, first compound 3.16 µM.
[35] abbreviates: second compound 10 µM, first compound 10 µM.
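For viability, T/C in this document: spheroids mix tumor cells with HUVEC endothelium and human MSC stroma; luminescence taken as viability surrogate after a week of drug exposure.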

With `COc1cc(C2c3cc4c(cc3C(OC3OC5COC(C)OC5C(O)C3O)C3COC(=O)C23)OCO4)cc(OC)c1O` (stereo unspecified) + Cc1cncc(-c2nc(NCCc3c[nH]c4ccccc34)c3ncn(C(C)C)c3n2)c1, the concentration for half-maximal inhibition (IC50) is 1080 nM under setting [1]; 1010 nM under setting [2]; 980 nM under setting [3]; 1050 nM under setting [4]; 1810 nM under setting [5]. Further, the viability, T/C by setting is: under setting [6], 102%; under setting [7], 107%; under setting [8], 85%; under setting [9], 52.6%; under setting [10], 29%; under setting [11], 25.8%. In addition, the viability, T/C was 107% under setting [12]; 101% under setting [13]; 93.2% under setting [14]; 49.1% under setting [15]; 27.4% under setting [16]; 19.2% under setting [17]. The viability, T/C is 106% under setting [18]; 111% under setting [19]; 86.5% under setting [20]; 50.2% under setting [21]; 27.9% under setting [22]; 23.6% under setting [23]. Moreover, the viability, T/C reads like this: under setting [24], 112%; under setting [25], 126%; under setting [26], 118%; under setting [27], 50.9%; under setting [28], 34.4%; under setting [29], 26.2%. The viability, T/C was 179% under setting [30]; 126% under setting [31]; 118% under setting [32]; 56.9% under setting [33]; 31.6% under setting [34]; 25.1% under setting [35].

For the compound `CCc1c2c(nc3ccc(O)cc13)-c1cc3c(c(=O)n1C2)COC(=O)[C@]3(O)CC`, the viability, T/C by setting is: (compound 0.000949 µM) 73.4% and 63.5% and 74.2%; (compound 0.003 µM) 71% and 71.7% and 44.2%; (compound 0.00949 µM) 38.3% and 39.2% and 18.2%; (compound 0.03 µM) 22% and 28.9% and 12%; (compound 0.0949 µM) 16.9% and 22.7% and 10%; (compound 0.3 µM) 14.9% and 13.4% and 8.11%. In addition, under “curve of compound”, the concentration for half-maximal inhibition (IC50) is 6.31 nM and 6.13 nM and 2.39 nM.

Consider `COc1cccc2c1C(=O)c1c(O)c3c(c(O)c1C2=O)CC(O)(C(=O)CO)CC3OC1CC(N)C(O)C(C)O1` (stereo unspecified), for which the viability, T/C reads like this: (compound 0.0316 µM) 60.2% and 42.4% and 46.4%; (compound 0.1 µM) 51.7% and 29.8% and 35.3%; (compound 0.316 µM) 40.5% and 30.9% and 23.8%; (compound 1 µM) 2.19% and 6.39% and 4.25%; (compound 3.16 µM) 3.29% and 2.59% and 2.1%; (compound 10 µM) 12.3% and 10.8% and 14%. Further, for the setting “curve of compound”, the IC50 is 155 nM and < 31.6 nM.

For the compound `Nc1ccn(C2OC(CO)C(O)C2(F)F)c(=O)n1` (stereo unspecified) + CC(CO)NC(=O)c1cc(-c2ccc(Cl)cc2)nn(-c2cnn(C)c2)c1=O, the half-inhibitory concentration (IC50) by setting is: under setting [1], 518 nM; under setting [2], 549 nM; under setting [3], 504 nM; under setting [4], 178 nM; under setting [5], 101 nM. In addition, the viability, T/C under setting [6] was 59.8%; the viability, T/C under setting [7] was 75.3%; the viability, T/C under setting [8] is 72.4%; the viability, T/C under setting [9] is 24.4%; the viability, T/C under setting [10] is 13.2%; the viability, T/C under setting [11] was 13.6%. The viability, T/C is 56% under setting [12]; 73.8% under setting [13]; 86.4% under setting [14]; 26.1% under setting [15]; 11.4% under setting [16]; 9.09% under setting [17]. Besides, the viability, T/C was 90.5% under setting [18]; 87.8% under setting [19]; 68.7% under setting [20]; 22.6% under setting [21]; 14.2% under setting [22]; 14.8% under setting [23]. The viability, T/C is 78.1% under setting [24]; 56.4% under setting [25]; 45.5% under setting [26]; 20.9% under setting [27]; 16.4% under setting [28]; 11.9% under setting [29]. Also, the viability, T/C was 50.2% under setting [30]; 54.5% under setting [31]; 36.3% under setting [32]; 22.5% under setting [33]; 15.5% under setting [34]; 10.5% under setting [35].

Turning to `O=C(C=Cc1cccc(S(=O)(=O)Nc2ccccc2)c1)NO` + Cc1cncc(-c2nc(NCCc3c[nH]c4ccccc34)c3ncn(C(C)C)c3n2)c1, the IC50 is 5890 nM under setting [1]; 6860 nM under setting [2]; greater than 10000 nM under setting [3]; 6640 nM under setting [4]; 1730 nM under setting [5]. Moreover, the viability, T/C by setting is: under setting [6], 119%; under setting [7], 115%; under setting [8], 138%; under setting [9], 93.6%; under setting [10], 63.7%; under setting [11], 39.8%. For the same compound, the viability, T/C is 131% under setting [12]; 129% under setting [13]; 125% under setting [14]; 101% under setting [15]; 66.5% under setting [16]; 42% under setting [17]. For the same compound, the viability, T/C is, setting by setting: under setting [18], 146%; under setting [19], 132%; under setting [20], 137%; under setting [21], 108%; under setting [22], 73.6%; under setting [23], 51.4%. For the same compound, the viability, T/C was 135% under setting [24]; 143% under setting [25]; 147% under setting [26]; 106% under setting [27]; 61.3% under setting [28]; 43.5% under setting [29]. Further, the viability, T/C under setting [30] is 151%; the viability, T/C under setting [31] is 112%; the viability, T/C under setting [32] is 108%; the viability, T/C under setting [33] was 69.2%; the viability, T/C under setting [34] was 25.2%; the viability, T/C under setting [35] was 5.33%.

As to `Cc1cncc(-c2nc(NCCc3c[nH]c4ccccc34)c3ncn(C(C)C)c3n2)c1`, the IC50 (compound alone, run of 06/06/2022) was greater than 10000 nM.

With `Cc1ccccc1N=Nc1ccc(NC(=O)c2ccnn2C)c(C)c1`, the IC50 (compound alone, run of 06/14/2022) was greater than 10000 nM.
